For the first experiment, the target named is T1, recombinant wild-type HIV-1 PR (Human immunodeficiency virus type 1 group M subtype B, UniProt P04585).
T1 construct: recombinant wild-type HIV-1 PR from Bachem; purchased Bachem
The experiment is described as follows: In vitro fluorometric HIV-1 protease inhibition assay (fluorogenic substrate Abz-Thr-Ile-Nle-Phe(p-NO2)-Gln-Arg-NH2, pH 5.5). The format is biochemical.
Conditions: not given
The protocol: IC50 values were determined at pH 5.5 using recombinant wild-type HIV-1 PR from Bachem and the fluorogenic substrate Abz-Thr-Ile-Nle-Phe(p-NO2)-Gln-Arg-NH2 (Abz-NF⁄-6; Bachem AG, Bubendorf, CH). […] The assay was performed as follows: Dilution Buffer: 100 mM MES buffer, pH 5.5, containing 400 mM NaCl, 1 mM EDTA, 1 mM DTT and 1 mg/mL BSA. Solution A: 10 μL of a substrate stock solution in DMSO (10 mg/ml, 10.6 mM) were diluted in 1.99 ml of dilution buffer to a final concentration of […]. Solution B: 10 μL of a protease stock solution (0.4 mg/mL) in 10 mM sodium phosphate buffer, pH 6.5, containing 1 mM EDTA, 10% glycerol, 0.05% mercaptoethanol, 50 mM NaCl, were diluted 100 times with the dilution buffer, pH 5.5, to a final concentration of 0.004 mg/ml.
Assay: 114 μL of solution A, 11 μL of solution B and 75 μL of the dilution buffer were pre-incubated in a cuvette at 25 °C, and the fluorescence was recorded at 325 nm excitation and 420 nm emission for 10 min. A total of 2 μL of the inhibitor in DMSO was then added, and the fluorescence was recorded for a further 10 min. […] IC50 was obtained by measuring the relative residual enzyme activity (ratio of the increase of fluorescence velocities before and after the addition of inhibitor) and by fitting the residual activity vs. inhibitor concentration semilog plots to a tetraparametric logistic function (Sigma plot 2001, SPSS Inc., Chicago, IL, USA). All the measures were triplicated.
IC50 values were obtained on recombinant wild-type HIV protease by measuring the initial rates of hydrolysis of the fluorogenic substrate Abz-Thr-Ile-Nle-Phe(NO2)-Gln-Arg (Table 1). The initial rates of the enzyme-catalyzed reactions were measured at different inhibitors concentrations, while the reference rates for the not-inhibited reactions were measured each time before the addition of the inhibitors. IC50 was obtained by measuring the relative residual enzyme activity (ratio of the increase of fluorescence velocities before and after the addition of inhibitor) and by fitting the residual activity vs. inhibitor concentration semilog plots to a tetraparametric logistic function.
Turning to `O=C(N[C@@H](Cc1ccccc1)[C@H](O)CN(Cc1ccccc1)S(=O)(=O)c1ccc([N+](=O)[O-])cc1)c1ccc2sccc2c1` [Compound 7a, N-((2S,3R)-3-hydroxy-4-(N-benzyl-4-nitrophenylsulfonamido)-1-phenylbutan-2-yl)benzo[b]thiophene-5-carboxamide], the IC50 was determined as 4.2 nM.

On to `COc1ccc(S(=O)(=O)N(Cc2ccccc2)C[C@@H](O)[C@H](Cc2ccccc2)NC(=O)c2ccc3sccc3c2)cc1` [Compound 7b, N-((2S,3R)-3-hydroxy-4-(N-benzyl-4-methoxyphenylsulfonamido)-1-phenylbutan-2-yl)benzo[b]thiophene-5-carboxamide], for which the IC50 stood at 2.3 nM.

In the case of `COc1ccc(S(=O)(=O)N(Cc2ccccc2)C[C@@H](O)[C@H](Cc2ccccc2)NC(=O)c2ccc3sccc3c2)cc1OC` [Compound 7c, N-((2S,3R)-3-hydroxy-4-(N-benzyl-3,4-dimethoxyphenylsulfonamido)-1-phenylbutan-2-yl)benzo[b]thiophene-5-carboxamide], the IC50 stood at 6.2 nM.

In the case of `O=C(N[C@@H](Cc1ccccc1)[C@H](O)CN(Cc1ccccc1)S(=O)(=O)c1ccc([N+](=O)[O-])cc1)c1ccc2occc2c1` [Compound 8a, N-((2S,3R)-3-hydroxy-4-(N-benzyl-4-nitrophenylsulfonamido)-1-phenylbutan-2-yl)benzofuran-5-carboxamide], the IC50 is 47 nM.

Take `COc1ccc(S(=O)(=O)N(Cc2ccccc2)C[C@@H](O)[C@H](Cc2ccccc2)NC(=O)c2ccc3occc3c2)cc1` [Compound 8b, N-((2S,3R)-3-hydroxy-4-(N-benzyl-4-methoxyphenylsulfonamido)-1-phenylbutan-2-yl)benzofuran-5-carboxamide]: the IC50 was found to be 9.6 nM.

In the case of `COc1ccc(S(=O)(=O)N(Cc2ccccc2)C[C@@H](O)[C@H](Cc2ccccc2)NC(=O)c2ccc3occc3c2)cc1OC` [Compound 8c, N-((2S,3R)-3-hydroxy-4-(N-benzyl-3,4-dimethoxyphenylsulfonamido)-1-phenylbutan-2-yl)benzofuran-5-carboxamide], the IC50 was determined as 82 nM.

Still in this experiment, the particulars now being: read-out: residual activity at the 0.5 nM inhibitor.
On to `O=C(N[C@@H](Cc1ccccc1)[C@H](O)CN(Cc1ccccc1)S(=O)(=O)c1ccc([N+](=O)[O-])cc1)c1ccc2[nH]ccc2c1` [Compound 9a, N-((2S,3R)-3-hydroxy-4-(N-benzyl-4-nitrophenylsulfonamido)-1-phenylbutan-2-yl)1H-indol-5-carboxamide], for which the remaining activity at 0.0005 µM is 27.7%.

Regarding `COc1ccc(S(=O)(=O)N(Cc2ccccc2)C[C@@H](O)[C@H](Cc2ccccc2)NC(=O)c2ccc3[nH]ccc3c2)cc1` [Compound 9b, N-((2S,3R)-3-hydroxy-4-(N-benzyl-4-methoxyphenylsulfonamido)-1-phenylbutan-2-yl)1H-indol-5-carboxamide], the remaining activity at 0.0005 µM was 36.3%.

For the compound `COc1ccc(S(=O)(=O)N(Cc2ccccc2)C[C@@H](O)[C@H](Cc2ccccc2)NC(=O)c2ccc3[nH]ccc3c2)cc1OC` [Compound 9c, N-((2S,3R)-3-hydroxy-4-(N-benzyl-3,4-dimethoxyphenylsulfonamido)-1-phenylbutan-2-yl)1H-indol-5-carboxamide], the remaining activity at 0.0005 µM was 10.2%.

Values taken from article PMC8615997, “The Pseudo-Symmetric N-benzyl Hydroxyethylamine Core in a New Series of Heteroarylcarboxyamide HIV-1 Pr Inhibitors: Synthesis, Molecular Modeling and Biological Evaluation” (Biomolecules, 2021).
